Experiment [1] concerns the target T1, GK-GKRP (interaction between glucokinase and glucokinase regulatory protein) (Homo sapiens, UniProt Q14397).
T1 construct: made in house; host or cells: GKRP: baculovirus system
T1 sequence (Q14397 1-625): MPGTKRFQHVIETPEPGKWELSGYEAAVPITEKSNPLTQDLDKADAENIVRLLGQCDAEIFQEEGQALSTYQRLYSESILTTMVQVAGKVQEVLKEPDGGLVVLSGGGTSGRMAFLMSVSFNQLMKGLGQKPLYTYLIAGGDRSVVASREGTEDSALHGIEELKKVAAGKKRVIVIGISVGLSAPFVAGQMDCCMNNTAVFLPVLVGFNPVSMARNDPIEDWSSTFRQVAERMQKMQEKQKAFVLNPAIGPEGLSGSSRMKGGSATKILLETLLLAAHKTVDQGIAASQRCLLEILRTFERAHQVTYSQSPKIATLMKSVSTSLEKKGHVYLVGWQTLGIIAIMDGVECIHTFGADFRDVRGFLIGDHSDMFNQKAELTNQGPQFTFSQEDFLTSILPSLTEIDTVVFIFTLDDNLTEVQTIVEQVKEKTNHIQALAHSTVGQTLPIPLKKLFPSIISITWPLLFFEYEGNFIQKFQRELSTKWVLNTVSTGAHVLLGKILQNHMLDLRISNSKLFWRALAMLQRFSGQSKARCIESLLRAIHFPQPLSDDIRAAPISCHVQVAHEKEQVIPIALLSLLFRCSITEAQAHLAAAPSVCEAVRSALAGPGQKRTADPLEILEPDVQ
In words: GK-GKRP Binding Assay (Binding), AlphaScreen. The following applies: avi-tagged GKRP, GK-fluorescein, AlphaScreen beads, 1 μM sorbitol-6-phosphate; read-out: GK-GKRP IC50 (Binding). Summed up: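 Biotinylated, C-terminally avi-tagged human GKRP was preincubated 20 min at room temperature with compound, then fluorescein-labelled human hepatic GK was added (6 nM in the added buffer). The mix was incubated 2 h at room temperature in the dark before AlphaScreen reading. Buffer was 20 mM Tris pH 7.5, 0.05% BSA, 1 mM DTT, 1 μM sorbitol-6-phosphate.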

The target of experiment [2] is T2, GK-GKRP (glucokinase / glucokinase regulatory protein) (Homo sapiens, UniProt Q14397).
T2 sequence (Q14397 1-625): T1 sequence (Q14397 1-625)
In words: GKRP LC MS/MS Biochemical Assay (LCMS/MS). The following applies: formation of 13C-glucose-6-phosphate from 13C-glucose by LC MS/MS, human His-hepatic GK, fructose-6-phosphate. In short, it runs like this:
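Human His-tagged hepatic GK (30 nM working stock, 5×) with GKRP in 50 mM Tris pH 7.5, 4 mM MgCl2, 6% DMSO; compound preincubated 30 min, then GK added for 30 min at room temperature. Acetonitrile-stopped; 13C-glucose-6-phosphate formed from 13C-glucose quantified by LC MS/MS.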

We go through 13 compounds from patent US20140155415A1, “BENZ[…] BENZODIOXINE COMPOUNDS THAT INTERACT WITH G[…] FOR THE TREATMENT OF DIABETES” (priority 2011, published 2014).

As to `COc1ccccc1C(NS(=O)(=O)c1ccc2c(c1)OCCCO2)c1cc2ccccc2o1` (racemic) [Example 17, N-(1-benzofuran-2-yl(2-methoxyphenyl)methyl)-3,4-dihydro-2H-1,5-benzodioxepine-7-sulfonamide], the IC50 in experiment [1] amounted to 170 nM. Besides, a half-maximal response in experiment [2] (EC50) required 95 nM.

As to `CSc1ccccc1[C@@H](NS(=O)(=O)c1ccc2c(c1)OCCCO2)c1nc2cccnc2s1` (single isomer, unassigned) [Example 65 Peak #2], in experiment [1], the IC50 was 7 nM. Further, in experiment [2], the EC50 was determined as 15 nM.

Take `CSc1ccccc1C(NS(=O)(=O)c1ccc2c(c1)OCCCO2)c1nc2cccnc2s1` (racemic) [Example 65, N-((2-(methylsulfanyl)phenyl)([1,3]thiazolo[5,4-b]pyridin-2-yl)methyl)-3,4-dihydro-2H-1,5-benzodioxepine-7-sulfonamide]: the IC50 in experiment [1] turned out to be 9 nM. In experiment [2], the EC50 came to 37 nM.

Consider `O=S(=O)(N[C@H](c1cc2ccccc2o1)c1ccccc1Br)c1ccc2c(c1)OCCCO2` (single isomer, unassigned) [Example 22 Peak #1], for which the IC50 in experiment [1] turned out to be 4500 nM. Further, the half-maximal effective concentration (EC50) in experiment [2] is more than 20000 nM.

As for `COc1ccccc1[C@@H](NS(=O)(=O)c1ccc2c(c1)OCCCO2)c1cc2ccccc2s1` (single isomer, unassigned) [Example 40 Peak #2], in experiment [1], the IC50 stood at 28 nM. Moreover, the EC50 in experiment [2] turned out to be 26 nM.

For `Cc1cc(F)ccc1C(NS(=O)(=O)c1ccc2c(c1)OCCCO2)c1cc2ccccc2o1` (racemic) [Example 3, N-(1-benzofuran-2-yl(4-fluoro-2-methylphenyl)methyl)-3,4-dihydro-2H-1,5-benzodioxepine-7-sulfonamide], the IC50 in experiment [1] was 1800 nM. The compound also displayed an EC50 in experiment [2] of 440 nM.

Regarding `O=S(=O)(N[C@H](c1ccccc1)c1cc2cccc(-c3ccccn3)c2s1)c1ccc2c(c1)OCCCO2` (single isomer, unassigned) [Example 71 Peak #2], in experiment [1], the IC50 amounted to 350 nM. Further, the half-maximal effective concentration (EC50) in experiment [2] turned out to be 120 nM.

In the case of `CSc1ccccc1[C@H](NS(=O)(=O)c1ccc2c(c1)OCCCO2)c1cc2ccncc2s1` (single isomer, unassigned) [Example 64 Peak #1], in experiment [1], the IC50 was 430 nM. In experiment [2], this compound registered an EC50 of 180 nM.

In the case of `CCc1ccccc1[C@@H](NS(=O)(=O)c1ccc2c(c1)OCCCO2)c1cc2ccccc2s1` (single isomer, unassigned) [Example 37 Peak #2], in experiment [1], the concentration for half-maximal inhibition (IC50) was determined as 130 nM. The same compound displayed a 50% effective concentration (EC50) in experiment [2] of 38 nM.

As for `O=S(=O)(NC(c1ccccc1)c1cc2cccnc2s1)c1ccc2c(c1)OCCCO2` (racemic) [Example 46, N-(phenyl(thieno[2,3-b]pyridin-2-yl)methyl)-3,4-dihydro-2H-1,5-benzodioxepine-7-sulfonamide], the IC50 in experiment [1] was 360 nM. This compound registered an EC50 in experiment [2] of 220 nM.

Take `COc1cnccc1C(NS(=O)(=O)c1ccc2c(c1)OCCCO2)c1cc2cccnc2s1` (racemic) [Example 50, N-((3-methoxy-4-pyridinyl)(thieno[2,3-b]pyridin-2-yl)methyl)-3,4-dihydro-2H-1,5-benzodioxepine-7-sulfonamide]: the concentration for half-maximal inhibition (IC50) in experiment [1] amounted to 410 nM. In addition, the concentration giving a half-maximal response (EC50) in experiment [2] worked out at 480 nM.

For the compound `O=S(=O)(NC(c1ncccn1)c1cc2ccccc2o1)c1ccc2c(c1)OCCCO2` (racemic) [Example 29, N-(1-benzofuran-2-yl(2-pyrimidinyl)methyl)-3,4-dihydro-2H-1,5-benzodioxepine-7-sulfonamide], the IC50 in experiment [1] is 1800 nM. The midpoint of the response in experiment [2], the EC50, lay at 990 nM.

For the compound `Nc1cccc(C(NS(=O)(=O)c2ccc3c(c2)OCCCO3)c2cc3ccccc3o2)c1` (racemic) [Example 14, N-((3-aminophenyl)(1-benzofuran-2-yl)methyl)-3,4-dihydro-2H-1,5-benzodioxepine-7-sulfonamide], the 50% inhibitory concentration (IC50) in experiment [1] stood at 1200 nM. Besides, in experiment [2], the EC50 was found to be 1600 nM.

The term IC50 denotes the concentration that gives 50% inhibition. One may read the EC50 as the concentration giving half of the maximal effect. A higher EC50 goes with lower potency in that assay.
